{"source": "paper PMC11652163", "about": "“Impact of fresh grape juice on the pharmacokinetics of omeprazole: results of a food–drug interaction study” (Frontiers in Pharmacology, 2024)", "key": {"[1]": {"conditions": "previously reported range; cited from earlier work"}, "[2]": {"test": "Pharmacokinetics of oral omeprazole (40 mg) alone or with fresh grape juice in healthy male volunteers, plasma HPLC-UV, non-compartmental analysis", "format": "in vivo, human", "conditions": "regular intake of 250 mL grape juice for 1 week before omeprazole"}, "[3]": {"test": "Pharmacokinetics of oral omeprazole (40 mg) alone or with fresh grape juice in healthy male volunteers, plasma HPLC-UV, non-compartmental analysis", "format": "in vivo, human", "conditions": "for AUC / Tmax / Cmax: male, human, plasma; for AUC / Cmax: 40 mg", "procedure": "The open-label and randomized study design was used to conduct the study in normal, healthy male volunteers. All volunteers were directed not to take any type of medication, including herbal medicines, for 2 weeks prior to clinical trials. Volunteers were divided into two groups. In treatment period-I, after overnight fasting, volunteers in group A received omeprazole (40 mg) alone, and volunteers in group B, […], were administered omeprazole (40 mg) along with grape juice (≈ 250 mL) on the fourth day. […] The volunteers in group B were given omeprazole (40 mg) alone. […] Blood samples (≈ 3 mL) were collected from each volunteer before the administration of the drug, as a blank, and following the administration of the drug at 0 […], and 24 h, in EDTA blood collection tubes. […] It was then centrifuged at 5,000 rpm for 5 min at -3°C. The supernatant was removed and evaporated in a nitrogen flux and then reconstituted in the mobile phase up to 0.5 mL and stored in a refrigerator. The samples were analyzed using a validated HPLC/UV-Vis chromatographic method developed for plasma sample analysis. The plasma samples were thawed on ice at room temperature and processed for analysis using the developed method. A calibration curve was plotted for varying concentrations of omeprazole, keeping the concentration of pantoprazole constant, and used as an internal standard. […] The concentration of pantoprazole was kept at 1 μg/ml as an internal standard. The concentration of omeprazole was 1 μg/mL, 1.5 μg/mL, and 2 μg/mL, and the concentration of internal standard was 1 μg/mL. The pharmacokinetic parameters of plasma omeprazole were calculated for each individual, using non-compartmental analysis of plasma concentration-time data with the help of PK-Summit® software. Cmax, the maximum plasma concentration, and tmax, the time to reach the maximum plasma concentration, were directly calculated from the analyzed data. The terminal half-life was calculated using the equation 0.693/kel, where kel represents the value of the elimination rate constant. The area under the plasma concentration-time curve was calculated according to the trapezoidal rule over the time interval 0 to the last measurable concentration (AUC0-t) and subsequent extrapolation to time infinity (AUC0-∞). The first moment of the plasma concentration vs. time curve (AUMC) is the plasma concentration multiplied by time vs. the time curve calculated by the same trapezoidal rule. The total body clearance (CL/F) was calculated as dose/AUC0-∞. The volume of distribution was calculated by multiplying total body clearance with the mean residence time (MRT). Statistical analysis was performed by paired t-test, and the pharmacokinetic parameters of omeprazole with water were compared with the parameters obtained from omeprazole administered with grape juice."}, "[4]": {"test_system": "H+/K+ ATPase or proton pump in parietal cells", "parameters": "method as in Kromer et al., 1999", "conditions": "ref Kromer et al., 1999; cited from earlier work"}, "[5]": {"conditions": "with repeated doses; cited from earlier work"}, "[6]": {"parameters": "method as in Dong et al., 1999", "conditions": "following administration of grape juice, healthy Chinese subjects; ref Dong et al., 1999; cited from earlier work"}}, "note": "Where two headings read alike, the source gives them in different places.", "data": [{"smiles": "COc1ccc2[nH]c([S+]([O-])Cc3ncc(C)c(OC)c3C)nc2c1", "note": "(centres unmarked) [Omeprazole]", "values": [{"measurement": "tmax, range already reported", "setting": "[1]", "result": "2 to 3", "unit": "h"}, {"measurement": "effect of grape juice on half-life", "setting": "[2]", "result": "not affected"}, {"measurement": "AUC", "setting": "[3]; oral, omeprazole 40 mg with water, read-out: AUC0 ∞", "result": "6000 ± 1540", "unit": "ng·h/mL"}, {"measurement": "Tmax", "setting": "[3]; oral, omeprazole 40 mg co-administered with fresh grape juice, read-out: mean time to reach the maximum plasma concentration (converted)", "result": 2.09, "unit": "h"}, {"measurement": "Cmax", "setting": "[3]; po, omeprazole 40 mg oral alone with water, mean", "result": 1950, "unit": "ng/mL"}, {"measurement": "AUC", "setting": "[3]; po, omeprazole 40 mg oral alone with water, mean, read-out: AUC0t", "result": 5840, "unit": "ng·h/mL"}, {"measurement": "AUC", "setting": "[3]; po, omeprazole 40 mg oral alone with water, mean, read-out: AUC0∞", "result": 6000, "unit": "ng·h/mL"}, {"measurement": "AUC", "setting": "[3]; po, omeprazole 40 mg oral alone with water, read-out: AUC0 t", "result": 5840, "unit": "ng·h/mL"}, {"measurement": "AUC", "setting": "[3]; po, omeprazole 40 mg oral alone, Table 4, read-out: AUC0∞", "result": 6000, "unit": "ng·h/mL"}, {"measurement": "Cmax", "setting": "[3]; po, omeprazole 40 mg oral with 250 mL fresh grape juice after prior juice intake, mean", "result": 1020, "unit": "ng/mL"}, {"measurement": "AUC", "setting": "[3]; po, omeprazole 40 mg oral with fresh grape juice, mean, read-out: AUC0 t", "result": 2830, "unit": "ng·h/mL"}, {"measurement": "AUC", "setting": "[3]; po, omeprazole 40 mg oral with fresh grape juice, mean, read-out: AUC0∞", "result": 2910, "unit": "ng·h/mL"}, {"measurement": "Tmax", "setting": "[3]; omeprazole 40 mg oral with fresh grape juice, mean, read-out: Tmax", "result": 2.09, "unit": "h"}, {"measurement": "AUMC0∞", "setting": "[3]; omeprazole 40 mg oral alone with water, mean", "result": 19.6, "unit": "µg.hr*hr/mL"}, {"measurement": "AUMC0∞", "setting": "[3]; omeprazole 40 mg oral alone, Table 4", "result": 19.6, "unit": "µg.hr*h/mL"}, {"measurement": "AUMC0∞", "setting": "[3]; omeprazole 40 mg oral with fresh grape juice, mean", "result": 10.36, "unit": "µg.h*h/mL"}, {"measurement": "AUMC0∞", "setting": "[3]; omeprazole 40 mg oral with grape juice, Table 4", "result": 10.36, "unit": "µg.hr*h/mL"}, {"measurement": "effect of grape juice on mean value of clearance", "setting": "[3]; omeprazole with grape juice versus alone", "result": "increased"}, {"measurement": "Ratio (OMP + juice/OMP) of AUC0 t", "setting": "[3]; with grape juice versus alone", "result": 0.4846}, {"measurement": "Ratio (OMP + juice/OMP) of AUC0∞", "setting": "[3]; with grape juice versus alone", "result": 0.485}, {"measurement": "Ratio (OMP + juice/OMP) of AUMC0∞", "setting": "[3]; with grape juice versus alone", "result": 0.5286}, {"measurement": "Ratio (OMP + juice/OMP) of Cmax", "setting": "[3]; with grape juice versus alone", "result": 0.5212}, {"measurement": "Ratio (OMP + juice/OMP) of Tmax", "setting": "[3]; with grape juice versus alone", "result": 1.045}, {"measurement": "duration of inhibition of gastric acid secretion", "setting": "[4]", "result": "up to 36 h"}, {"measurement": "increase of bioavailability", "setting": "[5]", "result": "up to 60%"}]}, {"smiles": "CCOc1ccc(NC(C)=O)cc1", "note": "[phenacetin]", "values": [{"measurement": "change of AUC", "setting": "[6]", "result": "reduced AUC"}]}]}
